In patent US12503446B2, “Bromodomain inhibitors” (FORSCHUNGSZENTRUM JÜLICH GMBH, priority 2019, dated 2025):

Tests used:
AML cell line Molm-14 = test: MTT assay, metabolic activity of Molm-14 cells; assay type: cell-based; conditions: 1 μM, 72 h, DMSO control set to 100%
Protocol: All studies with the HEL, Molm-14 and K562 cell lines mentioned (sourced from DSMZ: ACC-11, ACC-10 and ACC-777) were conducted under germ-free conditions under a sterile hood. Incubation was effected at 37° C. in an incubator at a CO2 saturation of 5%. For the passage of the suspension cells, the cells were transferred in a Falcon prefilled with PBS (phosphate buffered saline) and centrifuged at 1200 rpm for 5 min. All three cell lines were cultured in RPMI-1640 medium (Gibco, Thermo Fischer Scientific, Darmstadt, Germany) with 10% FCS and 1% penicillin streptomycin.
The viability and metabolic activity of the cells were measured by the MTT assay. Yellow, water-soluble MTT (3-([…])-2,5-diphenyltetrazolium bromide) is a tetrazolium salt which is reduced to dark blue formazan in living cells. Insoluble formazan is released by addition of isopropanol-HCl, and its intensity can be determined by photometry at a wavelength of 550 nm. Thus, the proportion of living cells is measured by comparison with a particular control sample. The cells were counted and washed with PBS, and 30 000 cells per well were sown in triplicates in a 96-well plate. For the inhibitor treatment, the stated final concentrations were used. For this purpose, 10 µl of the appropriate inhibitor dilution was introduced into the 96-well plates, and then 90 μl of cell suspension was pipetted in. The plates were incubated in an incubator for 72 h (37° C., 5% CO2). After the incubation, 10 μl of MTT solution (5 mg/ml) was applied to the wells with a multichannel pipette and thoroughly resuspended. This was followed by incubation for 4 h in the dark at room temperature. Subsequently, the cells were resuspended in 100 μl of isopropanol-HCl and lysed, and absorption at a wavelength of 550 nm was measured by photometry with a plate reader (Kayto, RT-2100C).
The erythroleukaemia cell line HEL (JAK2V617F-positive), the AML cell line Molm-14 and the chronic myeloid leukaemia (CML) cell line K562 (BCR-ABL-positive) were used for cell experiments.
Compounds MF1-R, MF1-S, JHS1-R and JHS1-S were dissolved in DMSO, and each was used in concentrations of 0.1 μM, 1 μM, 10 μM and 20 μM. Correspondingly, DMSO was included in each case as a control treatment, and the metabolic activity thereof was set to 100%. The HEL, Molm-14 and K562 cell lines were treated with the respective compounds in the different concentrations and, after 72 h in culture, the metabolic activity, which gives information about the growth of the cells, was determined by means of MTT [3-(4,5-dimethylthiazol-2-yl)-2,5-diphenyltetrazolium bromide] assay.

HEL cells [1] = test: Proliferation assay, cell count after trypan blue staining, HEL; assay type: cell-based; conditions: 1 or 5 μM, 24-72 h, by comparison with PFI-1
Protocol: (§1) Cell count and viability was determined after trypan blue staining. The appropriate concentrations of the inhibitors per ml of medium were added, or the correspondingly highest volume of DMSO was added as control group.
The cell growth described here is referred to as proliferation, and gives information as to the cell divisions that proceeded in the specified period.

HEL cells [2] = test: Viability from trypan blue staining, HEL; assay type: cell-based; conditions: 5 μM, compared to PFI-1
Protocol: as §1
During the study of cell proliferation, the viability of the cell lines was likewise determined from the trypan blue staining. Trypan blue cannot penetrate into living cells.

[3] = tested on: PARP1 cleavage in Molm-14 cells; test: PARP1 cleavage Western blot (apoptosis), Molm-14; assay type: cell-based; conditions: 5 μM
Protocol: Cell lysates were produced with RIPA lysis buffer (50 mM Tris pH 7.4, 150 mM sodium chloride, 1 mM EDTA, 1% Triton-X, 15% glycerol, 0.5% sodium deoxycholate, and protease/phosphatase inhibitors). Protein concentrations were determined by the Bradford Protein Assay using a Nanodrop Spectrometer (NanoDrop 2000/2000c system, Thermo Fisher Scientific, Darmstadt, Germany) at 595 nm. To 25 μg of protein lysates was added 4xLämmli sample buffer, followed by denaturing at 65° C. for 5 min and introduction into the SDS-Page. The proteins were transferred by the wet blot method in Towbin buffer (3 g Tris, 14.4 g glycine, 5% methanol per litre of ddH2O) to a PVDF membrane at 100 mA overnight. The membrane was blocked with 10% BSA in TBS-T buffer (20 mM Tris-HCl, pH 7.6, 137 mM NaCl, 0.05% IGEPAL). The primary antibodies were incubated at 4° C. overnight, and the HRP-labelled antibodies at room temperature with the membrane for […]. The proteins were detected by means of PCA-ECL solution using a chemiluminescence detector (Fusion SL, PeqLab).
In addition, a possible induction of apoptosis in the cell lines described by compound MF2 was examined. […] The cleavage of the PARP1 protein is an indicator of incipient apoptosis (cell death) of the cells, and the cleavage products of PARP1 were accordingly examined by Western blot. In detail, after the inhibitor treatment, cell lysates were produced with RIPA lysis buffer. Protein concentrations were determined with the Bradford protein assay using a Nanodrop Spectrometer at 595 nm. To 25 μg of the protein lysates was added 4×Lämmli sample buffer, followed by denaturing at 65° C. for 5 min and introduction into the SDS-Page. The proteins were transferred by the wet blot method to a PVDF membrane at 100 mA overnight. The membrane was blocked with 10% BSA in TBS-T buffer. The primary antibodies were incubated at 4° C. overnight, and the HRP-labelled antibodies at room temperature with the membrane for 45 min. The proteins were detected by means of PCA-ECL solution using a chemiluminescence detector (Fusion SL, PeqLab). […]

[4] = tested on: PBMC or CD34+ cells from healthy donors; test: CFU assay, healthy controls; assay type: cell-based, human
Protocol: With the aid of the CFU assay, it is possible to determine the colony-forming capacity of individual cells in a semisolid methylcellulose medium (MethoCult H4434, StemCell Technologies, Cologne, Germany). The number of colonies was determined after 7-11 days.
CD34+ cells (G-CSF mobilized from stem cell donors) from healthy donors: 2×10^4 cells/ml; PBMCs from the healthy subjects: 4×10^5 cells/ml.
For this purpose, mononuclear cells (PBMC: mononuclear cells from peripheral blood) or CD34-positive stem cells (CD34+ cells) were isolated from the blood of four healthy controls and three AML or MPN patients and introduced into semisolid medium, to each of which 1 μM or 5 μM of MFS-2 or PFI-1 have been added. Individual cells in the CFU assay form cell colonies in culture after 12 days, unless the formation thereof is prevented by inhibitors.

[5] = tested on: proteins from the BET family; test: Thermal shift assay (BromoMELT assay), BET family; assay type: binding; conditions: 10 μM, duplicates, versus DMSO control; apart from BRDT-2
Protocol: The experiment was conducted in duplicates at a concentration of 10 μM.

Q: What does the source list for `CN1Cc2cc(N=[S@@](C)(=O)c3ccccc3)ccc2NC1=O` [MF2-S, (S)—N-(3-methyl-2-oxo-1,2,3,4-tetrahydroquinazolin-6-yl)-S-methyl-S-phenylsulfoximine]?
A: metabolic activity of Molm-14 cells (AML cell line Molm-14): 55.19%±0.72; cell proliferation (cell count) of HEL (HEL cells [1]): significantly reduced the cell proliferation; viability of HEL cells (HEL cells [2]): significantly reduced the viability; uncleaved PARP1, Molm-14 ([3]; 48 h): less uncleaved PARP1 was apparent; band for the PARP1 cleavage product, Molm-14 ([3]; 48 h, compared to PFI-1): same intensity; induction of apoptosis, Molm-14 ([3]; compared to MF2, MF2-R, PFI-1): induced apoptosis more strongly than the other compounds examined; colony count, healthy CD34+ controls 3 and 4 ([4]; 1 μM): reduced the colony count of the controls to a lesser degree; colony count, healthy control 4 ([4]; 1 μM): not significantly reduced; colony count, healthy controls 1 (PBMC) and 2 (CD34+ cells) ([4]; 5 μM): likewise reduced the amount of colonies; binding of BET family proteins (ΔTm, in words) [5]: equally good or better binding of proteins from the BET family compared to the comparative compound PFI-1
